Where a SMILES comes first, the peptide text is derived from it. Bridges are numbered along the chain shown (N, C = ends). [ ]: non-standard residue; d: D form. Nle = CCCC[C@H](N)C(=O)O
Key:
hMC3R [1] = target: T1, hMC3R (Homo sapiens, UniProt P41968); assay: Adenylate cyclase assay; type: cell-based; details: cAMP, text description
hMC3R [2] = target: T1, hMC3R; assay: Competition binding vs 125I-[Nle4,DPhe7]-α-MSH on whole HEK293 cells; details: text description
hMC1R [3] = target: T2, hMC1R (Homo sapiens, UniProt Q01726); assay: Adenylate cyclase assay; type: cell-based; details: cAMP, text description
hMC1R [4] = target: T2, hMC1R; assay: Competition binding vs 125I-[Nle4,DPhe7]-α-MSH on whole HEK293 cells; details: text description
hMC4R [5] = target: T3, hMC4R (Homo sapiens, UniProt P32245); assay: as above; details: text description
hMC5R [6] = target: T4, hMC5R (Homo sapiens, UniProt P33032); assay: as above; details: text description
hMC4R [7] = target: T3, hMC4R; assay: Adenylate cyclase assay; type: cell-based; details: cAMP, text description
hMC5R [8] = target: T4, hMC5R; assay: Adenylate cyclase assay; type: cell-based; details: cAMP, text description

T2 sequence (Q01726 whole entry): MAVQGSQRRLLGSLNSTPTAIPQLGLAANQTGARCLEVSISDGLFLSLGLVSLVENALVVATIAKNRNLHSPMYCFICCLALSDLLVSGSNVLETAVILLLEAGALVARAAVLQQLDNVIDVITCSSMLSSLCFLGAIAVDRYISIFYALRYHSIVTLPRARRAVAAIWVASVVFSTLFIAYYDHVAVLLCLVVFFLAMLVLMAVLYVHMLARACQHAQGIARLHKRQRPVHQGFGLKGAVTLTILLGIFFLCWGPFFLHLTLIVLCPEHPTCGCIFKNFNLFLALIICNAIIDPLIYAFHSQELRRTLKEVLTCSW
T1 sequence (P41968 whole entry): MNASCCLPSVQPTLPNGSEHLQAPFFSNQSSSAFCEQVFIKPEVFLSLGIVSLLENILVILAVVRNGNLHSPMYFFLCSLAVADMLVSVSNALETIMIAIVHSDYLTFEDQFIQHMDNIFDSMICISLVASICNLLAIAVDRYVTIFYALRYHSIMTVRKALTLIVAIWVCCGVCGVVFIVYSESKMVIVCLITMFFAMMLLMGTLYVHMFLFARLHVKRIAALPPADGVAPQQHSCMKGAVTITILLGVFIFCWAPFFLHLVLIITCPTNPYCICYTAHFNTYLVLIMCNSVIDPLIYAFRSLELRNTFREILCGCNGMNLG
T3 sequence (P32245 whole entry): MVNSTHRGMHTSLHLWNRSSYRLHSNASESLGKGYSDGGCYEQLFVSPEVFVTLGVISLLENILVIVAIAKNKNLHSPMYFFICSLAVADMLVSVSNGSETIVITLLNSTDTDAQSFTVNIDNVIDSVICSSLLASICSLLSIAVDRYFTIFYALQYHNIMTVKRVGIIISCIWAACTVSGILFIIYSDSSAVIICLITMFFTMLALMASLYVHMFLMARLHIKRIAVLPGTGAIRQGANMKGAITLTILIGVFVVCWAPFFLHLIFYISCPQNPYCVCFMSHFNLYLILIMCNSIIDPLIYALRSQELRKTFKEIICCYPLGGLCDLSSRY
T4 sequence (P33032 whole entry): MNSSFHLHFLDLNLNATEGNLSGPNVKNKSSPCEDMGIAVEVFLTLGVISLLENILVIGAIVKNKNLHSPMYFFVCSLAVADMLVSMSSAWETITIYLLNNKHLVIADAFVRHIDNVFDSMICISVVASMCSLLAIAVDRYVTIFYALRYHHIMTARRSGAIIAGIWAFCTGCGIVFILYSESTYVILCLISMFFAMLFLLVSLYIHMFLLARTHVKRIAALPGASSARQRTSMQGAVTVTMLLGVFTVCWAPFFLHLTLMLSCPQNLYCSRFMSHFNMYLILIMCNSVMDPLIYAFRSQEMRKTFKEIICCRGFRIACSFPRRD

Structure (SMILES) | functional activity at hMC3R (in words) (hMC3R [1]) | binding at hMC3R (in words) (hMC3R [2]) | functional activity at hMC1R (in words) (hMC1R [3]) | binding at hMC1R (in words) (hMC1R [4]) | binding at hMC4R (in words) (hMC4R [5]) | binding at hMC5R (in words) (hMC5R [6]) | functional activity at hMC4R (in words) (hMC4R [7]) | functional activity at hMC5R (in words) (hMC5R [8])
CCCC[C@H](NC(C)=O)C(=O)N[C@H]1CC(=O)NCCCC[C@@H](C(N)=O)NC(=O)[C@H](Cc2c[nH]c3ccccc23)NC(=O)[C@H](CCCNC(=N)N)NC(=O)[C@@H](Cc2ccccc2)NC(=O)[C@@H]2CCCN2C(=O)[C@@H]2CCCN2C1=O [compound 1, Ac-Nle-c[D-P-P-DPhe-R-W-K]-NH2] (Ac-[Nle]DPP[dF]RWK-NH2; lactam 2-8) | undetectable activity | low binding affinity | low potency | no appreciable binding | low binding affinity | no appreciable binding | undetectable activity | undetectable activity
CCCC[C@H](NC(C)=O)C(=O)N[C@H]1CC(=O)NCCCC[C@@H](C(N)=O)NC(=O)[C@H](Cc2c[nH]c3ccccc23)NC(=O)[C@H](CCCNC(=N)N)NC(=O)[C@@H](Cc2ccccc2)NC(=O)[C@@H]2CCCN2C(=O)[C@H](Cc2c[nH]c3ccccc23)NC1=O [compound 3, Ac-Nle-c[D-W-P-DPhe-R-W-K]-NH2] | no stimulation of cAMP accumulation | weak binding | weak and moderate activation | no affinity | no affinity | no affinity | weak and moderate activation | weak and moderate activation
